The text below walks through data of patent US4737518A, “Lipid derivatives, their production and use” (Takeda Chemical Industries, Ltd., priority 1984, dated 1988).

Experiment [1] relates to rabbit platelet aggregation by PAF. Put plainly: Inhibitory activity on rabbit platelet aggregation by PAF. The class given is cell-based. Particulars: Oryctolagus cuniculus, PAF 1×10^-8 M, read-out: rate of inhibition of rabbit platelet aggregation by PAF.
The test system of another experiment is PAF-induced hypotension. The experiment is described as follows: Inhibitory activity against PAF-induced hypotension in rats. The class given is in vivo, rat (male Spraque-Dawley). Particulars: PAF 0.3 μg/kg i.v. As for the experimental part:
Inhibitory activity against PAF-induced hypotension in rats
Male Spraque-Dawley rats, with a body weight of about 400 g, were used under pentobarbital sodium (50 mg/kg, intravenous administration) anesthesia. A cannula was inserted into the femoral artery and secured in position for measurement of blood pressure and another cannula into the femoral vein for administration of a solution of the drug. The blood pressure was measured via a pressure transducer and recorded on a polygraph. First, 0.3 μg/kg of PAF was administered intravenously and the hypotensive response was recorded.
The inhibitory activity against PAF-induced hypotension was estimated from the rate of PAF-induced hypotensive response (Δ mmHg) after the drug administration to hypotensive response (Δ mmHg) by PAF before the drug administration.

Experiment [2] concerns endotoxin-induced hypotension. The experiment is described as follows: Anti-endotoxin shock activity in rats. The note with it: endotoxin 15 mg/kg i.v., one minute after. The class given is in vivo, rat (male Spraque-Dawley). The procedure: Anti-endotoxin shock activity in rats
Male Spraque-Dawley rats weighting about 400 g were used under pentobarbital sodium (50 mg/kg, i.v.) anesthesia. A cannula was inserted into the femoral artery and secured in position for measurement of blood pressure and another cannula into femoral vein for administration of a solution of the drug. The blood pressure was measured via a pressure transducer and recorded on a polygraph. First, a suspension of endotoxin (15 mg/kg) [Lipopolysaccharide W.E. coli 0111: B4, Wako Pure Chemical] in physiological saline was administered intravenously and the maximum hypotensive response (Δ mmHg) occurring 3 to 5 minutes after administration was recorded. Simultaneously, the compound of Example 108 was dissolved in physiological saline and administered intravenously in a dose of 1 to 100 μg/kg. The restortion rate against endotoxin-induced hypotension one minute after the administration was calculated. The presence of preventive activity against endotoxin shock was judged from the strength of the restoration rate.

The test system of the next experiment is HL-60 cells. Put plainly: Effect on inducing differentiation of HL-60 cells (NBT-positive cells). The note with it: 6 days. Format: cell-based, human. The procedure: Assay of the effects on inducing differentiation of HL-60 cells (human promyelocytic leukemia cells) and Neuro-2a cells (mouse neuroblastoma cells): RPMI-1640 medium (Flow Laboratories, Inc.) supplemented with 20% fetal calf serum (M.A. […] The culture was incubated at 37° C. in a 5% CO2 incubator for 6 days. […] The reaction was allowed to proceed at 37° C. for 20 minutes. The reaction was stopped by cooling with ice, and the cells were washed by means of centrifugation, followed by collecting 3-5×10^4 cells and by subjecting to centrifugation using Cytospin centrifuge to prepare a cell smear, which was fixed with methanol and stained with Kernechtrot solution. On each cell smear, the percentage of NBT-positive cells relative to live cells, […] by examination of a minimum of 200 cells, was expressed as the differentiation extent.

The test system of experiment [3] is Neuro-2a cells. The experiment is described as follows: Effect on morphological differentiation of neuroblastoma Neuro-2a. Particulars: three days, untreated 22. Format: cell-based, mouse. As for the experimental part:
Assay of the effects on inducing differentiation of HL-60 cells (human promyelocytic leukemia cells) and Neuro-2a cells (mouse neuroblastoma cells):
For Neuor-2a cells, 1×10^4 cells were inoculated into GIT medium (Daigo-eiyo Chemicals, Japan) and one day later various amounts of the compound of Example 108 were added. The cells were incubated for following three days at 37° C. in a 5% CO2 incubator.
The percentage of cells that were morphologically similar to neurocyte with extended neurite was determined by microscopical examination of cells more than 200.

For a further experiment, the system named is KB cells. The experiment is described as follows: Cell growth inhibition assay, KB. The class given is cell-based. Particulars: Homo sapiens, 72 h, concentration giving T/C 50%, day 4, read-out: ED50 (the source's name). As for the experimental part:
(§1) 2×10^4 cells per well charged with GIT medium for KB cells (human epidermoid carcinoma cells), A549 cells (human lung carcinoma cells) and HSC-1 cells (human skin squamous carcinoma cells), and 4×10^4 cells for B16-BL6 cells (mouse melanoma cells) and 5×10^3 cells for Neuro-2a cells were inoculated. On day 1 (next day), various concentrations of the compound of Example 108 were added. On day 4, cells were suspended in a solution of trypsin-EDTA and the number of cells was counted. The ratio of cell number in treated culture to that in control culture was estimated as T/C (%) value. The concentration of the compound of Example 108 giving a value of T/C, 50% was defined as ED50.

The next experiment concerns B16-BL6 cells. Put plainly: Cell growth inhibition assay, B16-BL6. The note with it: Mus musculus, 72 h, concentration giving T/C 50%, day 4, read-out: ED50 (the source's name). Format: cell-based. The procedure: as §1
A further experiment relates to HSC-1 cells. Put plainly: Cell growth inhibition assay, HSC-1. The class given is cell-based. Particulars: Homo sapiens, 72 h, concentration giving T/C 50%, day 4, read-out: ED50 (the source's name). The procedure: as §1
The subject of a further experiment is A549 cells. The experiment is described as follows: Cell growth inhibition assay, A549. Format: cell-based. Particulars: Homo sapiens, 72 h, concentration giving T/C 50%, day 4, read-out: ED50 (the source's name). The procedure: as §1
Experiment [4] concerns Neuro-2a cells. Put plainly: Cell growth inhibition assay, Neuro-2a. Particulars: Mus musculus, N2a, 72 h, concentration giving T/C 50%, day 4, read-out: ED50 (the source's name). Format: cell-based. The procedure: as §1

Molecules are shown by their SMILES. “And” between values parts separate entries of the source, which are not always exact repeats. Identical values can stand only once.

The inhibition is the drop in the measured response relative to a control, in per cent. `CCCCCCCCCCCCCCCCCCNC(=O)OCC(COC(=O)N(Cc1cccc[n+]1CC)C(C)=O)OC` (stereo not drawn) [Example 108, 1-Ethyl-2-[N-acetyl-N-(3-octadecylcarbamoyloxy-2-methoxypropyloxy)carbonyl]aminomethylpyridinium chloride]: in [1] (test drug 3 × 10^-5 M), the inhibition at 30 µM was determined as 100%. Also, in experiment [1] (test drug 3 × 10^-6 M), the inhibition at 3 µM turned out to be 100%. Further, the inhibition at 0.3 µM in [1] (test drug 3 × 10^-7 M) came to 100%. Besides, the Restoration rate was 100% with PAF-induced hypotension (0.1 mg/kg i.v., after 5 min); 55% in the experiment with PAF-induced hypotension (0.1 mg/kg i.v., after 60 min); 100% in the experiment with PAF-induced hypotension (1 mg/kg i.v., after 5 min); 100% in the experiment on PAF-induced hypotension (1 mg/kg i.v., after 60 min). Besides, the “Restoration rate against endotoxin-induced hypotension” value in [2] (0.01 mg/kg i.v., 2 rats, single values) was 100% and 59%; in [2] (0.1 mg/kg i.v., 3 rats, mean ± standard error), 97 ± 1%. Further, the “Maximum differentiation extent: Optimal conc.” value in the experiment with HL-60 cells is 0.63 µg/mL. Besides, in the experiment on HL-60 cells (Homo sapiens, HL-60, 144 h, at optimal conc., NBT-positive relative to live cells, read-out: Maximum differentiation extent: Differentiation), the Emax came to 83%. Further, the “% of cells with neurite” value worked out at 26% with Neuro-2a cells [3] (2.5 μg/ml); 33% with Neuro-2a cells [3] (5 μg/ml); 35% in the experiment on Neuro-2a cells [3] (10 μg/ml); 44% with Neuro-2a cells [3] (15 μg/ml); 74% with Neuro-2a cells [3] (20 μg/ml). Besides, the IC50 in the experiment on KB cells is 0.16 µg/mL; in the experiment on B16-BL6 cells, 2.5 µg/mL; in the experiment on HSC-1 cells, 0.63 µg/mL; in the experiment with A549 cells it was 0.63 µg/mL; in the experiment on Neuro-2a cells [4], 5 µg/mL.
